Data taken from ChEMBL document CHEMBL1155145, “Calcineurin inhibition or mutation enhances cell wall inhibitors against Aspergillus fumigatus” (2007).
Active and inactive are the calls of the source. The rule behind the calls is not given here.

Tests used:
[1] = test system: Aspergillus fumigatus; assay: Antifungal activity against Aspergillus fumigatus assessed as induction of balloon-like of hyphal apical tips at 32 ug/ml after 48 hrs; type: functional, organism-based
[2] = test system: Aspergillus fumigatus; assay: Decrease in 1,3-beta-D-glucan level in Aspergillus fumigatus assessed as relative fluorescence units at 1 ug/ml by aniline blue fluorescence assay; type: functional
[3] = test system: Aspergillus fumigatus; assay: Decrease in 1,3-beta-D-glucan level in Aspergillus fumigatus expressing delta-cnaA mutant assessed as relative fluorescence units at 1 ug/ml by aniline blue fluorescence assay; type: functional
[4] = test system: Aspergillus fumigatus; assay: Antifungal activity against Aspergillus fumigatus expressing delta-cnaA mutant assessed as dead microbial cells at 1 ug/ml by trimethine oxonol staining; type: functional
[5] = test system: Aspergillus fumigatus; assay: Antifungal activity against Aspergillus fumigatus assessed as inhibition of hyphal growth at 1 ug/ml by radial growth assay; type: functional, organism-based
[6] = test system: Aspergillus fumigatus; assay: Antifungal activity against Aspergillus fumigatus assessed as induction of stunted hyphal tips at 20 ng/ml after 6 hrs; type: functional, organism-based
[7] = test system: Aspergillus fumigatus; assay: Antifungal activity against Aspergillus fumigatus ungerminated conidia assessed as delay in germ-tube extension at 20 ng/ml after 60 hrs of fungal growth; type: functional, organism-based
[8] = test system: Aspergillus fumigatus; assay: Decrease in 1,3-beta-D-glucan level in Aspergillus fumigatus assessed as relative fluorescence units at 20 ng/ml by aniline blue fluorescence assay; type: functional
[9] = test system: Aspergillus fumigatus; assay: Effect on cellular morphology of Aspergillus fumigatus assessed as induction hyphal tips blunting at 20 ng/ml; type: functional, organism-based
[10] = test system: Aspergillus fumigatus; assay: Effect on cellular morphology of Aspergillus fumigatus expressing delta-cnaA mutant assessed as induction hyphal tips blunting at 20 ng/ml; type: functional, organism-based
[11] = test system: Aspergillus fumigatus; assay: Antifungal activity against Aspergillus fumigatus assessed as inhibition of hyphal growth at 20 ng/ml by radial growth assay; type: functional, organism-based

## C[C@@H]([C@H](N)C(=O)N[C@H](C(=O)O)[C@H]1O[C@@H](n2ccc(=O)[nH]c2=O)[C@H](O)[C@@H]1O)[C@H](O)c1ccc(O)cn1
[1]
  Activity: Active

## CC[C@H](C)C[C@H](C)CCCCCCCCC(=O)N[C@H]1C[C@@H](O)[C@@H](NCCN)NC(=O)[C@@H]2[C@@H](O)CCN2C(=O)[C@H]([C@H](O)CCN)NC(=O)[C@H]([C@H](O)[C@@H](O)c2ccc(O)cc2)NC(=O)[C@@H]2C[C@@H](O)CN2C(=O)[C@H]([C@@H](C)O)NC1=O [CASPOFUNGIN]
[2]
  RFU: 6.187
[3]
  RFU: 1.086
[4]
  Activity: 15%
[5]
  Activity: Active

## C=CC[C@@H]1/C=C(\C)C[C@H](C)C[C@H](OC)[C@H]2O[C@@](O)(C(=O)C(=O)N3CCCC[C@H]3C(=O)O[C@H](/C(C)=C/[C@@H]3CC[C@@H](O)[C@H](OC)C3)[C@H](C)[C@@H](O)CC1=O)[C@H](C)C[C@@H]2OC [TACROLIMUS ANHYDROUS]
[6]
  Activity: Dose-dependent effect
[7]
  Activity: Dose-dependent effect
[8]
  RFU: 2.909
[9]
  Activity: Active
[10]
  Activity: Active
[11]
  Activity: Active
